US6897210B2, “Quinazoline derivatives and pharmaceutical compositions containing them” (Zeneca Limited, priority 1996, dated 2005)
Where a name gives a salt, the structure may show the parent alone.

test system: VEGF receptor tyrosine kinase (Flt, KDR); assay: In vitro receptor tyrosine kinase inhibition test (VEGF receptor); type: biochemical; conditions: VEGF receptor tyrosine kinase compared with EGF receptor tyrosine kinase
Excerpt: (a) In Vitro Receptor Tyrosine Kinase Inhibition Test
This assay determines the ability of a test compound to inhibit tyrosine kinase activity. […] These may then be expressed in a suitable expression system to obtain polypeptide with tyrosine kinase activity. […] This recombinant construct was co-transfected into insect cells (for example Spodoptera frugiperda 21(Sf21)) with viral DNA (eg Pharmingen BaculoGold) to prepare recombinant baculovirus.
For expression of cFlt tyrosine kinase activity, Sf21 cells were infected with plaque-pure cFlt recombinant virus at a multiplicity of infection of 3 and harvested 48 hours later. […] The suspension was centrifuged for 10 minutes at 13,000 rpm at 4° C., the supernatant (enzyme stock) was removed and stored in aliquots at −70° C. Each new batch of stock enzyme was titrated in the assay by dilution with enzyme diluent (100 mM Hepes pH 7.4, 0.2 mM sodium orthovanadate. 0.1% v/v Triton X100, 0.2 mM dithiothreitol). For a typical batch, stock enzyme is diluted 1 in 2000 with enzyme diluent and 50 μl of dilute enzyme is used for each assay well.
A stock of substrate solution was prepared from a random copolymer containing tyrosine, for example Poly (Glu, Ala, Tyr) 6:3:1 (Sigma P3899), stored as 1 mg/ml stock in PBS at −20° C. and diluted 1 in 500 with PBS for plate coating.
On the day of the assay the substrate solution was discarded and the assay plate wells were washed once with PBST (PBS containing 0.05% v/v Tween 20) and once with 50 mM Hepes pH7.4.
Test compounds were diluted with 10% dimethylsulphoxide (DMSO) and 25 μl of diluted compound was transferred to wells in the washed assay plates. “Total” control wells contained 10% DMSO instead of compound. Twenty five microliters of 40 mM manganese(II)chloride containing 8 μM adenosine-5′-triphosphate (ATP) was added to all test wells except “blank” control wells which contained maganese(II)chloride without ATP. To start the reactions 50 μl of freshly diluted enzyme was added to each well and the plates were incubated at room temperature for 20 minutes. The liquid was then discarded and the wells were washed twice with PBST. […] Plates were then incubated for 20-60 minutes at room temperature until the optical density value of the “total” control wells, measured at 405 nm using a plate reading spectrophotometer, was approximately 1.0.

Compound | activity against VEGF and EGF receptor tyrosine kinases
COCCOCCOc1cc2ncnc(Nc3ccc(Cl)cc3F)c2cc1OC.Cl [Example 5, 4-(4-chloro-2-fluoroanilino)6-methoxy-7-(2(2-methoxyethoxy)ethoxy)quinazoline hydrochloride] | substantially equivalent activity
COc1cc2c(Nc3ccc(Cl)cc3F)ncnc2cc1OCC1OCCO1 [Example 6, 4-(4-chloro-2-fluoroanilino)-7-(1,3-dioxolan-2-ylmethoxy)-6-methoxyquinazoline] | substantially equivalent activity
COc1cc2c(Nc3ccc(Cl)cc3F)ncnc2cc1OCC#CCN1CCOCC1.Cl.O [Example 10, 4-(4-chloro-2-fluoroanilino)-6-methoxy-7-(4-morpholinobut-2-yn-1-yloxy)quinazoline hydrochloride hydrate] | substantially equivalent activity
COc1cc2c(Nc3ccc(Cl)cc3F)ncnc2cc1OCCN1CCSCC1 [Example 12, 4-(4-chloro-2-fluoroanilino)-6-methoxy-7-(2-thiomorpholinoethoxy)quinazoline] | substantially equivalent activity
COc1cc2c(Nc3ccc(Cl)cc3F)ncnc2cc1OCCCS(C)(=O)=O [Example 16, 4-(4-chloro-2-fluoroanilino)-6-methoxy-7-(3-(methylsulphonyl)propoxy)quinazoline] | substantially equivalent activity
COc1cc2c(Nc3ccc(Cl)cc3F)ncnc2cc1OC/C=C/CN1CCCC1.Cl [Example 17] | substantially equivalent activity
COc1cc2c(Nc3ccc(Cl)cc3F)ncnc2cc1OCCCN1CCCC1=O.Cl [Example 47, 4-(4-chloro-2-fluoroanilino)-6-methoxy-7-(3-(2-oxopyrrolidin-1-yl)propoxy)quinazoline hydrochloride] | substantially equivalent activity
COc1cc2c(Nc3ccc(Br)cc3F)ncnc2cc1OCCCN1CCCC1=O.Cl [Example 48] | substantially equivalent activity
COc1cc2c(Nc3ccc(Br)cc3F)ncnc2cc1OCCCN(C)S(C)(=O)=O.Cl [Example 49, 4(4bromo-2-fluoroanilino)-6-methoxy-7-(3([N-methyl-N-methylsulphonyl]amino)propoxy)quinazoline hydrochloride] | substantially equivalent activity
COc1cc2c(Nc3ccc(Br)cc3F)ncnc2cc1OCCCN1CCC[C@H]1C(N)=O.Cl [Example 50, (S)-4-(4-bromo-2-fluoroanilino)-7-(3-(2-carbamoylpyrrolidin-1-yl)propoxy)6-methoxyquinazoline hydrochloride] | substantially equivalent activity
COCC(=O)N(C)CCOc1cc2ncnc(Nc3ccc(Cl)cc3F)c2cc1OC.Cl [Example 51, 4-(4-chloro-2-fluoroanilino) methoxy-7-(2-([N-methyl-N-methoxyacetyl]amino)ethoxy)quinazoline hydrochloride] | substantially equivalent activity
COc1cc2c(Nc3ccc(Cl)cc3F)ncnc2cc1OCCN1CCOCC1=O.Cl [Example 52, 4-(4-chloro-2-fluoroanilino)6-methoxy-7-(2-(3-oxomorpholino)ethoxy)quinazoline hydrochloride] | substantially equivalent activity
COc1cc2c(Nc3ccc(Cl)cc3F)ncnc2cc1OCCOCCN1CCOCC1.Cl [Example 53, 4-(4-chloro-2-fluoroanilino)-6-methoxy-7-(22-morpholinoethoxy)ethoxy)quinazoline hydrochloride] | substantially equivalent activity
COc1cc2c(Nc3ccc(Cl)cc3F)ncnc2cc1OCCCN1CCC[C@H]1C(N)=O.Cl [Example 54, (S)-7-(3-(2-carbamoylpyrrolidin-1-yl)propoxy)4-(4-chloro-2-fluoroanilino)-6-methoxyquinazoline hydrochloride] | substantially equivalent activity
COc1cc2c(Nc3ccc(Cl)cc3F)ncnc2cc1OCCCN1CC(C)OC(C)C1.Cl (stereo not drawn) [Example 55, 4-(4-chloro-2-fluoroanilino)7(3(2,6-dimethylmorpholino)propoxy)6-methoxyquinazoline hydrochloride] | substantially equivalent activity
Cl.Fc1cc(Cl)ccc1NCOc1ncnc2cc(SCCCN3CCOCC3)ccc12 [Example 56, 4-(4-chloro-2-fluoroanilino)methoxy-7-(3-morpholinopropylthio)quinazoline hydrochloride] | substantially equivalent activity
COc1cc2c(Nc3ccc(Cl)cc3F)ncnc2cc1OCCCN(C)S(C)(=O)=O.Cl [Example 59] | substantially equivalent activity
COc1cc2c(Nc3ccc(Cl)cc3F)ncnc2cc1OCCOCCN1CCN(C)CC1.Cl [Example 63] | substantially equivalent activity
COc1cc2c(Nc3ccc(Cl)cc3F)ncnc2cc1OCCOCCN1CCCC1.Cl [Example 64, 4-(4-chloro-2-fluoroanilino)-6-methoxy-7-(2-(2-pyrrolidin-1-ylethoxy)ethoxy)quinazoline hydrochloride] | substantially equivalent activity
COc1cc2c(Nc3ccc(Cl)cc3F)ncnc2cc1OC/C=C/CN1CCOCC1.Cl [Example 66, (E)-4-(4-chloro-2-fluoroanilino)-6-methoxy-7-(4-morpholinobut-2-en-1-yloxy)quinazoline hydrochloride] | substantially equivalent activity
COc1cc2c(Nc3ccc(Br)cc3F)ncnc2cc1OCCN1CCOCC1=O.Cl [Example 67, 4-(4-bromo-2-fluoroanilino)-6-methoxy-7-(2-(3 oxomorpholino)ethoxy)quinazoline hydrochloride] | substantially equivalent activity
COc1cc2c(Nc3ccc(Br)cc3F)ncnc2cc1OCCN1CCCC1=O.Cl [Example 68, 4-(4-bromo-2-fluoroanilino)methoxy-7-(2-(2-oxpyrrolidin-1-yl)ethoxy)quinazoline hydrochloride] | substantially equivalent activity

test system: not given; assay: not given; conditions: not given

Compound | melting point [°C]
COc1cc2ncnc(Nc3ccc(C)c(O)c3)c2c([N+](=O)[O-])c1OC.Cl | 206 to 208
COc1cc2c(Nc3ccc(Cl)cc3F)ncnc2cc1OCCCS(C)(=O)=O (as salt: hydrochloride) [Example 16, 4-(4-chloro-2-fluoroanilino)-6-methoxy-7-(3-(methylsulphonyl)propoxy)quinazoline] | > 250
COc1cc2c(Nc3ccc(Cl)cc3F)ncnc2cc1OCC#CCN1CCOCC1.Cl.O (hydrate or solvate) [Example 10, 4-(4-chloro-2-fluoroanilino)-6-methoxy-7-(4-morpholinobut-2-yn-1-yloxy)quinazoline hydrochloride hydrate] | 175 to 178
COCCOc1cc2ncnc(Nc3ccc(C)c(OC(C)=O)c3)c2cc1OC [Example 1, 4-(3-acetoxy-4-methylanilino)-6-methoxy-7-(2-methoxyethoxy)quinazoline] | 180 to 183
COc1cc2c(Nc3ccc(Cl)cc3F)ncnc2cc1OCCN1CCSCC1 [Example 12, 4-(4-chloro-2-fluoroanilino)-6-methoxy-7-(2-thiomorpholinoethoxy)quinazoline] | 181 to 182
COc1cc2c(Nc3ccc(Cl)cc3F)ncnc2cc1OCCS(C)(=O)=O [Example 30, 4-(4-chloro-2-fluoroanilino)-6-methoxy-7-(2-methylsulphonylethoxy)quinazoline] | 227 to 230
COc1cc2c(Nc3ccc(Br)cc3F)ncnc2cc1OCCCS(C)(=O)=O [Example 32, 4-(4-bromo-2-fluoroanilino)6-methoxy-7-(3-methylsulphonylpropoxy)quinazoline] | > 250
COc1cc2c(Nc3ccc(Cl)cc3F)ncnc2cc1OCCN1C(=O)CCCC1=O [Example 35, 4-(4-chloro-2-fluoroanilino)-7-(2-(2,6-dioxopiperidino)ethoxy)-6-methoxyquinazoline] | 202 to 203
